According to patent US20230286973A1, “PROTEIN SECRETION INHIBITORS” (KEZAR LIFE SCIENCES, priority 2020, published 2023):
Where two headings read alike, the source gives them in different places.

Key:
[1] = tested on: TNFα-FL/Gaussia Luciferase; assay: Dox Induced TNFα-FL-Gluc Assay; assay type: cell-based; conditions: for IC50: 24 hr Dox induction, 293FRT/TO cells, read-out: 24 hr Dox Inducible TNFaFLGluc 293FRT/TO: Mean IC50; for 24 hr Dox Inducible TNFaFLGluc 293FRT/TO: TNF/PD1: ratio of TNFaFLGluc IC50 to PD1ssGluc IC50
In short: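 Hygromycin/blasticidin-selected Flp-In 293 T-REx cells, TNFα-FL/Gaussia luciferase fusion under T-REx control; overnight plating, then compound in DMSO/media with doxycycline at 37 °C, 5% CO2; stereo-undefined structures tested as mixtures.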

[2] = Liver Microsome Stability Assay (monkey); conditions: monkey liver microsomes, with NADPH, 1.0 uM compound
Method: (§1) Stability of a compound was assessed in the presence of liver microsomes from various sources—mouse, rat, monkey and human liver microsomes. 1.0 uM compound, 0.4% DMSO in 0.1 M Potassium Phosphate with 1.0 mg/mL liver microsomes, were incubated at 37° C. with or without 1 mM NADPH. The samples were quenched at 0, and 30 minutes.

[3] = tested on: PD1-ss+10aa/Gaussia Luciferase; assay: Dox-Induced PD1-ss-Gluc Assay; assay type: cell-based; conditions: 24 hr Dox induction, 293FRT/TO cells, read-out: 24 hr Dox Inducible PD1ssGluc 293FRT/TO: Mean IC50
In short: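 The cell line was made by transfecting Flp-In 293 T-REx cells with a PD1 signal sequence+10aa–Gaussia luciferase fusion under T-REx control and selecting with hygromycin and blasticidin. Cells were seeded, and next day compound plus doxycycline was added at 37 °C, 5% CO2.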

[4] = Liver Microsome Stability Assay (mouse); conditions: mouse liver microsomes, with NADPH, 1.0 uM compound
Method: as §1

[5] = tested on: HER3-ss+4aa/Gaussia Luciferase; assay: Dox-Induced Her3-ss-Gluc Assay; assay type: cell-based; conditions: 24 hr Dox induction, 293FRT/TO cells, read-out: 24 hr Dox Inducible Her3(ss + 4)Gluc 293FRT/TO: Mean IC50
In short: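 Doxycycline-inducible HER3 signal sequence+4aa/Gaussia luciferase construct, stably integrated in Flp-In 293 T-REx cells; compound dilutions applied with doxycycline at 37° C., 5% CO2.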

[6] = tested on: multiple myeloma cell line U266B1; assay: U266 Cell Viability Assay; assay type: cell-based, human; conditions: Homo sapiens, U-266, 48 h, U266B1 cells, Celltiter-Glo
In short: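 After growth in serum-supplemented RPMI 1640, cells received serially diluted compound in DMSO/media and were kept 48 hours before a CellTiter-Glo luminescence readout.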

[7] = tested on: IL-2-FL/Gaussia Luciferase; assay: Dox Induced IL2-FL-Gluc Assay; assay type: cell-based; conditions: for IC50: 24 hr Dox induction, 293FRT/TO cells, read-out: 24 hr Dox Inducible IL2FLGluc 293FRT/TO: Mean IC50; for 24 hr Dox Inducible IL2FLGluc 293FRT/TO: IL2/PD1: ratio of IL2FLGluc IC50 to PD1ssGluc IC50
In short: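 A hygromycin- and blasticidin-resistant 293 T-REx clone carrying inducible IL-2–Gaussia luciferase (full-length IL-2, residues 1-153) serves as the cell system. After overnight plating, the cells get test compounds together with doxycycline in DMSO/media and are incubated at 37° C, 5% CO2.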

[8] = Liver Microsome Stability Assay (rat); conditions: rat liver microsomes, with NADPH, 1.0 uM compound
Method: as §1

[9] = Liver Microsome Stability Assay (human); conditions: human liver microsomes, with NADPH, 1.0 uM compound
Method: as §1

[10] = tested on: multiple myeloma cell line NCI-H929; assay: H929 Cell Viability Assay; assay type: cell-based, human; conditions: Homo sapiens, NCI-H929, 48 h, NCI-H929 cells, Celltiter-Glo
In short: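 A 48-hour compound treatment of cells in 10% FBS RPMI medium was followed by luciferase-based viability quantification.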

[11] = '<=>' given where both are I.A.

SMILES | IC50 [1] [nM] | Liver Microsome Stability (Multiple Species): Monkey - % Remaining after 30 min w/NADPH [2] [%] | IC50 [3] [nM] | Liver Microsome Stability (Multiple Species): Mouse - % Remaining after 30 min w/NADPH [4] [%] | IC50 [5] [nM] | EC50 [6] [nM] | IC50 [7] [nM] | Liver Microsome Stability (Multiple Species): Rat - % Remaining after 30 min w/NADPH [8] [%] | Liver Microsome Stability (Multiple Species): Human - % Remaining after 30 min w/NADPH [9] [%] | EC50 [10] [nM] | IC50 ([1]; mean) [nM] | IC50 ([3]; mean) [nM] | IC50 ([5]; mean) [nM] | IC50 ([7]; mean) [nM] | 24 hr Dox Inducible TNFaFLGluc 293FRT/TO: TNF/PD1 [1] | 24 hr Dox Inducible IL2FLGluc 293FRT/TO: IL2/PD1 [7] | 24 hr Dox Inducible TNFaFLGluc 293FRT/TO: TNF/PD1 [1, 11] | 24 hr Dox Inducible IL2FLGluc 293FRT/TO: IL2/PD1 [7, 11]
CC(=O)Nc1c(F)cc(N2CCC[C@@H]2c2csc(NC(=O)c3cccn3Cc3ccnc(F)c3)n2)cc1F [Compound A99, (R)-N-(4-(1-(4-acetamido-3,5-difluorophenyl)pyrrolidin-2-yl)thiazol-2-yl)-1-((2-fluoropyridin-4-yl)methyl)-1H-pyrrole-2-carboxamide] | 5910 | 0.12 | 127 | 1.28 | 284 | > 25000 | 348 | 0.49 | 1.85 | 5300 | – | – | – | – | 46.7 | 2.8 | – | –
Cc1cc(Cn2cccc2C(=O)Nc2nc([C@H]3CCCN3c3ccccc3)cs2)ccn1 [Compound A52, (R)-1-((2-methylpyridin-4-yl)methyl)-N-(4-(1-phenylpyrrolidin-2-yl)thiazol-2-yl)-1H-pyrrole-2-carboxamide] | 4050 | 0.33 | 340 | 3.47 | 450 | > 25000 | 912 | 0.63 | 1.11 | 20600 | – | – | – | – | 11.9 | 2.7 | – | –
O=C(Nc1nc([C@H]2CCCN2c2ccc(Cl)cc2)cs1)c1cccn1Cc1ccncc1 [Compound A26, (R)-N-(4-(1-(4-chlorophenyl)pyrrolidin-2-yl)thiazol-2-yl)-1-(pyridin-4-ylmethyl)-1H-pyrrole-2-carboxamide] | 158 | 3.34 | 3.15 | 5.75 | 9.38 | 1170 | 6.78 | 8.78 | 5.11 | 136 | – | – | – | – | 50.2 | 2.1 | – | –
CC(=O)Nc1ccc(N2CCC[C@@H]2c2csc(NC(=O)c3cccn3Cc3ccnc(F)c3)n2)cc1 [Compound A68, (R)-N-(4-(1-(4-acetamidophenyl)pyrrolidin-2-yl)thiazol-2-yl)-1-((2-fluoropyridin-4-yl)methyl)-1H-pyrrole-2-carboxamide] | 44.1 | 11.8 | 2.32 | 27.5 | 4.98 | > 25000 | 6.04 | 16.9 | 25.8 | 44.6 | – | – | – | – | 19 | 2.6 | – | –
C[C@@H](O)c1ccc(N2CCC[C@@H]2c2csc(NC(=O)c3cccn3Cc3ccnc(F)c3)n2)cc1 [Compound A111, 1-((2-fluoropyridin-4-yl)methyl)-N-(4-((R)-1-(4-((R)-1-hydroxyethyl)phenyl)pyrrolidin-2-yl)thiazol-2-yl)-1H-pyrrole-2-carboxamide] | 94.5 | 3.48 | 7.92 | 12.7 | 13.6 | > 25000 | 16.3 | 7.97 | 2.78 | 422 | – | – | – | – | 11.9 | 2.1 | – | –

More lines, main results first:

IC50 [1] [nM] | Liver Microsome Stability (Multiple Species): Monkey - % Remaining after 30 min w/NADPH [2] [%] | IC50 [3] [nM] | Liver Microsome Stability (Multiple Species): Mouse - % Remaining after 30 min w/NADPH [4] [%] | IC50 [5] [nM] | EC50 [6] [nM] | IC50 [7] [nM] | Liver Microsome Stability (Multiple Species): Rat - % Remaining after 30 min w/NADPH [8] [%] | Liver Microsome Stability (Multiple Species): Human - % Remaining after 30 min w/NADPH [9] [%] | EC50 [10] [nM] | IC50 ([1]; mean) [nM] | IC50 ([3]; mean) [nM] | IC50 ([5]; mean) [nM] | IC50 ([7]; mean) [nM] | SMILES | 24 hr Dox Inducible TNFaFLGluc 293FRT/TO: TNF/PD1 [1] | 24 hr Dox Inducible IL2FLGluc 293FRT/TO: IL2/PD1 [7] | 24 hr Dox Inducible TNFaFLGluc 293FRT/TO: TNF/PD1 [1, 11] | 24 hr Dox Inducible IL2FLGluc 293FRT/TO: IL2/PD1 [7, 11]
> 25000 | 0.06 | 692 | 0.95 | 1280 | > 25000 | 3010 | 5.01 | 0.59 | > 25000 | – | – | – | – | CC(C)n1cnc(/C=C/Cc2csc(NC(=O)c3cccn3Cc3ccnc(F)c3)n2)c1 [Compound B106, (E)-1-((2-fluoropyridin-4-yl)methyl)-N-(4-(3-(1-isopropyl-1H-imidazol-4-yl)allyl)thiazol-2-yl)-1H-pyrrole-2-carboxamide] | >36.1 | 4.3 | – | –
– | 0.08 | – | 0.23 | – | > 25000 | – | 0.64 | 0.06 | > 25000 | > 25000 | 1960 | 4370 | 5560 | O=C(NC1=NC(CCc2ccccc2)CS1)c1cccn1Cc1ccncc1 (stereo not drawn) [Compound E50] | – | – | >12.8 | 2.8
– | 0.08 | – | 0.18 | – | > 25000 | – | 0.34 | 0.08 | > 25000 | > 25000 | 2900 | 8040 | 16500 | O=C(Nc1nc(C2Cc3cccnc3C2)cs1)c1cccn1Cc1ccncc1 (stereo not drawn) [Compound E37, N-(4-(6,7-dihydro-5H-cyclopenta[b]pyridin-6-yl)thiazol-2-yl)-1-(pyridin-4-ylmethyl)-1H-pyrrole-2-carboxamide] | – | – | >8.63 | 5.7
– | 0.21 | – | 21.3 | – | > 25000 | – | 11.2 | 1.61 | 6120 | 1200 | 126 | 257 | 279 | CCc1ccc(N2CCC[C@@H]2c2csc(NC(=O)c3cccn3CC3CCOCC3)n2)nc1 [Compound C85, (R)-N-(4-(1-(5-ethylpyridin-2-yl)pyrrolidin-2-yl)thiazol-2-yl)-1-((tetrahydro-2H-pyran-4-yl)methyl)-1H-pyrrole-2-carboxamide] | – | – | 9.53 | 2.2
